Data reported in patent US10780101B2, “Amide derivatives of squalamine for the treatment of infections” (VIRBAC, priority 2016, dated 2020).
Values after ≈ are worked out from the molar mass of the structure shown. Read-outs that look alike come from different tables or passages of the source.

Experiments:
[1] = tested on: E. faecalis Human ATCC 29212; test: MIC determination, E. faecalis human ATCC 29212; format: cell-based; settings: Enterococcus faecalis, ATCC29212; Gram-positive; Mueller-Hinton medium, 24 h at 37° C.
Protocol: (§1) A negative control (2 mL of sterile culture medium)
(§2) A positive control (1940 μL of culture medium+40 μL of DMSO+20 μL of the bacterial suspension) from a thawed biological strain (the biological strains are stored at −80° C. in glycerol).
(§3) The tubes were incubated at 37° C. for 24 hours at 100 rpm.
(§4) The microorganisms were handled under a type L2 laboratory fume cupboard and, before any handling, a UV cycle was programmed and only sterile material was used. […] The chemical compounds to be tested were prepared in a DMSO/methanol mixture (50/50) at a concentration of 5 mg/mL.
(§5) After 24 hours of incubation, a measurement of the optical density was taken using a spectrophotometer at 600 nm, collecting 100 μL of the bacterial suspension diluted in 900 μL of the sterile culture medium. This test required the use of a 96-well plate and the required volume of the microbial suspension to be seeded was calculated for an OD corresponding to a value equal to 0.01 in each well. In this plate, the first line corresponded to the negative control (195 μL of sterile culture medium in each well), the second line corresponded to the positive control (seeded culture medium supplemented with 2% of DMSO), and the third line was loaded twice with bacterial suspension; 8 μL of test product were placed in each well. Thereafter, a 0.5 cascade dilution was performed from this line.
(§6) The first column served as inhibition control. A sterile filter was then placed on the microplate, allowing the passage of gases but not of contaminants. The microplate was incubated at 37° C. under a humid atmosphere for 24 hours.
(§7) NB: The medium used is Mueller-Hinton (MH) medium for bacteria. All the tests were performed in duplicate.
(§8) After incubation, the filter was replaced with a transparent film, and an OD reading was then taken in an iEMS plate spectrophotometer at 620 nm. Calculation of the minimum inhibitory concentration (MIC) was performed.

[2] = tested on: P. aeruginosa Human ATCC 27853; test: MIC determination, P. aeruginosa human ATCC 27853; format: cell-based; settings: Pseudomonas aeruginosa, ATCC27853; Gram-negative; Mueller-Hinton medium, 24 h at 37° C.
Protocol: as §1, §2, §3, §4, §5, §6, §7, §8

[3] = tested on: P. aeruginosa Animal (1051575); test: MIC determination, P. aeruginosa animal (1051575); format: cell-based; settings: Pseudomonas aeruginosa; Gram-negative; Mueller-Hinton medium, 24 h at 37° C.
Protocol: as §1, §2, §3, §4, §5, §6, §7, §8

[4] = tested on: S. aureus Human ATCC 25923; test: MIC determination, S. aureus human ATCC 25923; format: cell-based; settings: Staphylococcus aureus, ATCC25923; Gram-positive; Mueller-Hinton medium, 24 h at 37° C.
Protocol: as §1, §2, §3, §4, §5, §6, §7, §8

[5] = tested on: E. coli Animal (1956); test: MIC determination, E. coli animal (1956); format: cell-based; settings: Escherichia coli; Gram-negative; Mueller-Hinton medium, 24 h at 37° C.
Protocol: as §1, §2, §3, §4, §5, §6, §7, §8

[6] = tested on: S. intermedius Animal (1051997); test: MIC determination, S. intermedius animal (1051997); format: cell-based; settings: Staphylococcus intermedius; Gram-positive; Mueller-Hinton medium, 24 h at 37° C.
Protocol: as §1, §2, §3, §4, §5, §6, §7, §8

[7] = tested on: CHO-K1 cells; test: WST1 cytotoxicity test on CHO-K1 cells; format: cell-based, Chinese hamster; settings: Cricetulus griseus, read-out: IC50 (μg/mL) CHO
Protocol: Test WST1 was used to measure the cytotoxic activity of the products. This is a colorimetric test which makes it possible to measure the viability and the degree of cell proliferation. It is based on cleavage of the colorless tetrazolium salts WST-1 (4-[3-(4-iodophenyl)-2-(4-nitrophenyl)-2H-5-tetrazolio]-1,3-benzene disulfonate) with mitochondrial dehydrogenases to the yellow-colored formazan derivative, which may be quantified by spectrophotometry at 420-480 nm.
The WST1 test was performed on Chinese hamster ovary cells. The CHO-K1 cells (ATCC, USA) are kept in culture in McCoy's 5A medium supplemented with 10% fetal calf serum, 2 mM of L-glutamine and a mixture of penicillin-streptomycin (100 U/ml: 10 μg/ml). The culture is incubated at 37° C. under an atmosphere enriched in CO2 (5%), and subcultured every two days.
The cells are transferred into 96-well plates (25000 cells/mL) in whole McCoy's 5A medium, and maintained for 24 hours at 37° C. under a humid atmosphere enriched in CO2 (5%). Increasing concentrations of test products are added to the wells in double tests and 8 growth controls containing the cells in the medium alone are included in each series of tests. After 24 hours at 37° C. (5% CO2), the culture medium is removed, the cells are rinsed in phosphate buffer (PBS) and 50 μL of PBS containing 10% of reagent WST1 are added to each well. After 20 minutes of incubation at 37° C., the results are read by spectrophotometry at 450 nm.
The results are expressed in dose-response relationships, modeled by nonlinear regression analysis using the TableCurve software. The 50% inhibitory concentration (IC50) represents the concentration of product that is capable of reducing the cell viability by 50%.

[8] = tested on: P. aeruginosa (1051575); test: Potentiation of chloramphenicol activity (combination MIC); format: cell-based, Pseudomonas aeruginosa; settings: chloramphenicol 2 μg/mL; concentration of compound required to restore antibiotic activity
Protocol: This method requires the use of a 96-well plate: 100 μL of a liquid culture medium are placed in each well and then seeded with the microbial suspension prepared previously. The required volume to be seeded is calculated for an OD of 0.01, which corresponds to about 5×10^6 bacteria in each well. In this plate, the first line corresponds to a negative control (200 μL of sterile culture medium in each well), the second line corresponds to a positive control (100 μL of sterile culture medium+100 μL of the bacterial suspension), and the third line contains 192 μL of culture medium; 8 μL of compound of formula (I) to be tested are placed in each well. Thereafter, a cascade dilution is performed from this line. […] 92 μL of bacterial suspension are then added to lines 3 to 8. The results are read (the determination of the MIC (2 μg/mL of doxycycline) in the presence of X g/mL of compound of formula (I)) after 24 hours of incubation at 37° C. under a humid atmosphere. After 24 hours of incubation at 37° C., 40 μL of nitro tetrazolium iodide are added to each well to reveal the presence of live bacteria by staining the medium pink.
The procedure is identical to that indicated in Example 5 above. […]
(§9) The results are given in table V. They indicate the concentration of compound of formula (I) required to be able to restore the activity of the antibiotic under consideration.

[9] = tested on: S. aureus Animal (340); test: MIC determination, S. aureus animal (340); format: cell-based; settings: Staphylococcus aureus; Gram-positive; Mueller-Hinton medium, 24 h at 37° C.
Protocol: as §1, §2, §3, §4, §5, §6, §7, §8

[10] = tested on: P. aeruginosa (1051575); test: Potentiation of erythromycin activity (combination MIC); format: cell-based, Pseudomonas aeruginosa; settings: erythromycin 2 μg/mL; concentration of compound required to restore antibiotic activity
Protocol: This method requires the use of a 96-well plate: 100 μL of a liquid culture medium are placed in each well and then seeded with the microbial suspension prepared previously. The required volume to be seeded is calculated for an OD of 0.01, which corresponds to about 5×10^6 bacteria in each well. In this plate, the first line corresponds to a negative control (200 μL of sterile culture medium in each well), the second line corresponds to a positive control (100 μL of sterile culture medium+100 μL of the bacterial suspension), and the third line contains 192 μL of culture medium; 8 μL of compound of formula (I) to be tested are placed in each well. Thereafter, a cascade dilution is performed from this line. L of a doxycycline solution (1 mg dissolved in 20 mL) are then added to each well of lines 3 to 8 to obtain a final antibiotic concentration of 2 μg/mL. 92 μL of bacterial suspension are then added to lines 3 to 8. The results are read (the determination of the MIC (2 μg/mL of doxycycline) in the presence of X g/mL of compound of formula (I)) after 24 hours of incubation at 37° C. under a humid atmosphere. After 24 hours of incubation at 37° C., 40 μL of nitro tetrazolium iodide are added to each well to reveal the presence of live bacteria by staining the medium pink.
The procedure is identical to that indicated in Example 5 above. 8 μL of an antibiotic solution under consideration (1 mg dissolved in 20 mL) are added to obtain a final antibiotic concentration of 2 μg/mL instead of 8 μL of a doxycycline solution.
as §9

[11] = tested on: E. coli Human ATCC 28922; test: MIC determination, E. coli human ATCC 28922; format: cell-based; settings: Escherichia coli, ATCC28922; Gram-negative; Mueller-Hinton medium, 24 h at 37° C.
Protocol: as §1, §2, §3, §4, §5, §6, §7, §8

[12] = tested on: P. aeruginosa (1051575); test: Potentiation of doxycycline activity (combination MIC); format: cell-based, Pseudomonas aeruginosa; settings: in presence of doxycycline 2 μg/mL; 24 hours at 37° C.

Row | SMILES | MIC [1] [µg/mL] | MIC [2] [µg/mL] | MIC [3] [µg/mL] | MIC [4] [µg/mL] | MIC [5] [µg/mL] | MIC [6] [µg/mL] | IC50 ([7]; Table III, WST1 test, CHO-K1 cells, 24 hours) [µg/mL] | MIC P. aeruginosa (1051575) compound + chloramphenicol [8] [µg/mL] | MIC [9] [µg/mL] | MIC P. aeruginosa (1051575) compound + erythromycin [10] [µg/mL] | MIC [11] [µg/mL] | IC50 ([7]; CHO-K1, 24 h) [µg/mL] | MIC - P. aeruginosa (1051575): content of compound of formula (I) to restore the doxycycline activity (at 2 μg/mL) [12] [µg/mL]
1 | CC(C)NC(=O)CC[C@@H](C)[C@H]1CCC2C3C(C[C@H](O)[C@@]21C)[C@@]1(C)CC[C@H](NCCNCCNCCNCCNCCN)CC1C[C@H]3O (stereo partly drawn) [(21), 3β-(pentaethylenehexamine)-N-isopropylcholamide] | 30 (≈ 45.2 µM) | 130 (≈ 196 µM) | 30 (≈ 45.2 µM) | 17 (≈ 25.6 µM) | 30 (≈ 45.2 µM) | 8 (≈ 12 µM) | 60 (≈ 90.4 µM) | 8 | 17 (≈ 25.6 µM) | 30 | 130 (≈ 196 µM) |  | 
2 | CC(C)NC(=O)CC[C@@H](C)[C@H]1CCC2C3C(C[C@H](O)[C@@]21C)[C@@]1(C)CC[C@H](NCCCN(CCCN)CCCN)CC1C[C@H]3O (stereo partly drawn) [(43), 3β-(tris(3-aminopropyl)amine)-N-isopropylcholamide] | 60 (≈ 96.8 µM) | 125 (≈ 202 µM) | 60 (≈ 96.8 µM) | 16 (≈ 25.8 µM) | 60 (≈ 96.8 µM) | 8 (≈ 12.9 µM) |  | 4 | 16 (≈ 25.8 µM) | 30 | 125 (≈ 202 µM) | 38 (≈ 61.3 µM) | 1
3 | C[C@H](CCC(=O)NC1CCCCC1)[C@H]1CCC2C3C(CC[C@@]21C)[C@@]1(C)CC[C@H](NCCCNCCCCNCCCN)CC1C[C@H]3O (stereo partly drawn) [(51), 3β-spermino-N-cyclohexylchenodeoxycholamide] | 2 (≈ 3.04 µM) | 16 (≈ 24.3 µM) | 16 (≈ 24.3 µM) | 4 (≈ 6.08 µM) | 16 (≈ 24.3 µM) | 1 (≈ 1.52 µM) |  | 2 | 2 (≈ 3.04 µM) | 8 | 105 (≈ 160 µM) | 13 (≈ 19.8 µM) | 2
4 | CC(C)N(C(=O)CC[C@@H](C)[C@H]1CCC2C3C(CC[C@@]21C)[C@@]1(C)CC[C@H](NCCCNCCCN)CC1C[C@H]3O)C(C)C (stereo partly drawn) [(37), 3β-norspermidino-N-diisopropylchenodeoxycholamide] | 4 (≈ 6.79 µM) | 30 (≈ 50.9 µM) | 15 (≈ 25.5 µM) | 4 (≈ 6.79 µM) | 4 (≈ 6.79 µM) | 1 (≈ 1.7 µM) |  | 2 | 2 (≈ 3.4 µM) | 7 | 15 (≈ 25.5 µM) | 35 (≈ 59.4 µM) | 2
5 | CC(C)N(C(=O)CC[C@@H](C)[C@H]1CCC2C3C(CC[C@@]21C)[C@@]1(C)CC[C@H](NCCCNCCCCNCCCN)CC1C[C@H]3O)C(C)C (stereo partly drawn) [(50), 3β-spermino-N,N-diisopropylchenodeoxycholamide] | 4 (≈ 6.06 µM) | 17 (≈ 25.8 µM) | 17 (≈ 25.8 µM) | 4 (≈ 6.06 µM) | 17 (≈ 25.8 µM) | 2 (≈ 3.03 µM) |  | 2 | 2 (≈ 3.03 µM) | 4 | > 130 | 25 (≈ 37.9 µM) | 2
6 | CC(C)NC(=O)CC[C@@H](C)[C@H]1CCC2C3CCC4C[C@@H](NCCCN(CCCN)CCCN)CC[C@]4(C)C3C[C@H](O)[C@@]21C (stereo partly drawn) [(42), 3β-(tris(3-aminopropyl)amine)-N-isopropyldeoxycholamide] | 30 (≈ 49.7 µM) | 30 (≈ 49.7 µM) | 60 (≈ 99.3 µM) | 4 (≈ 6.62 µM) | 30 (≈ 49.7 µM) | 1 (≈ 1.66 µM) |  | 2 | 4 (≈ 6.62 µM) | 8 | > 120 | 40 (≈ 66.2 µM) | 1
7 | CC(C)NC(=O)CC[C@@H](C)[C@H]1CCC2C3C(CC[C@@]21C)[C@@]1(C)CC[C@H](NCCCN(CCCN)CCCN)CC1C[C@@H]3O (stereo partly drawn) [(48), 3β-(tris(3-aminopropyl)amine)-N-isopropylursodeoxycholamide] | 60 (≈ 99.3 µM) | 120 (≈ 199 µM) | 120 (≈ 199 µM) | 30 (≈ 49.7 µM) | 120 (≈ 199 µM) | 8 (≈ 13.2 µM) |  |  | 15 (≈ 24.8 µM) |  | > 120 | 42 (≈ 69.5 µM) | 4
